Assay results: patent US20260284186A1, “[…] MODIFIERS FOR THE TREATMENT OF SUBJECTS WITH UNDER[…] SYSTEMS AND COMPOSITIONS THEREOF” (priority 2023, published 2026)

Key:
RBD-ACE2 interaction = assay: ACE2-binding inhibitory activity of the induced antibodies; format: in vivo, Balb/c mice; conditions: sera after three administrations; FIG. 3
Text: FIG. 3. Inhibitory activity of the antibody response induced by the groups with the strongest anti-RBD response after three administrations, following the immunization schedule described in example 1. A) G2; B) G4; C) G6; D) G11; E) G12 and F) Monoclonal antibody (McAb) CBSSRBD-S.8 used as standard curve to plot the results in the five ELISA plates.
Thus, we studied the antibody response effect on the ACE2-binding inhibitory activity.
The resulting antibody response is capable of inhibiting the binding of the antigen to their cellular receptor ACE2, a process that resembles the interaction of the virus to their cellular receptor. This inhibitory effect is essential to ensure the strong antiviral effect of the immune response against an infectious agent/virus through the specific neutralizing activity. […] This functional aspect of the antibody response is linked to the increased quality of the same response in terms of avidity. […] The quality of the experiment was ensured with the use of a McAb in the standard curve of the five plates used in the study and the reproducibility of the inhibitory effect (FIG. 3F) as well as with the assessment of the ACE2 inhibitory binding in a group that received the placebo of CDA but no antigen ([…]).

SARS and IAV = format: in vivo; conditions: BRM without antigen
multiple viruses = assay: In vitro stimulation of cells with CDA or CDA/HBcAg, IFN induction and virus elimination, Example 14; format: cell-based
SARS-COV-2 RBD = assay: Anti-RBD IgG response, CDA dose escalation, Example 13; format: in vivo, Balb/c mice

Nc1ncnc2c1ncn2[C@@H]1O[C@@H]2COP(=O)(O)O[C@H]3[C@@H](O)[C@H](n4cnc5c(N)ncnc54)O[C@@H]3COP(=O)(O)O[C@H]2[C@H]1O [CDA, cyclic bis(3′-5′) diadenylic acid]
Inhibitory effect on RBD-ACE2 binding (RBD-ACE2 interaction): strong inhibitory effect | Antibody response against the viral antigens after in vivo treatment (SARS and IAV): high avidity antibody response | Viral titers of SARS and IAV (SARS and IAV; acutely infected subjects and in vitro infected & treated cells, before or after infection): quantitative reduction of the viral titers | Stimulatory effects and type I / type 2 IFN induction (multiple viruses; in vitro stimulation of cells, synergy in vivo): enhancement of different channels of stimulatory effects | Elimination of viruses in vitro (multiple viruses; multiple viruses): in vitro elimination of multiple viruses | Dose of CDA inducing the strongest immune response (SARS-COV-2 RBD; RBD at 50 μg dose (1 mg/mL)): 5 µg | Optimal dose of CDA per mice (SARS-COV-2 RBD; with 12.5 μg of RBD): 10 µg
